Where two headings read alike, the source gives them in different places. One block for each compound: values may come before it.
Experiments:
Assay type in all cases: cell-based
[1] = tested on: colorectal cancer cell lines; experiment: Cell viability (CellTiterGlo, 72 h), Example 1, whole panel; conditions: repeat experiments (*) excluded
Source text: (§1) The colorectal cancer cell lines SW1417, COLO 205, LS411N, HT-29, RKO, OUMS-23, SW620, LoVo, SW480, SW837, COLO-678, LS123-NCI—H747, HCT-15, HCT116, DLD-1, T84, SW948, LS180, GP2d, HuTu 80, CW-2, SW48, NCI—H716, C2Bbe1, SNU—C1 and KM12 are obtained from the American Type Culture Collection (ATCC) and maintained in their respective culture medium as specified by the provider. These colorectal cancer cell lines have the following mutation status:
(§2) For assessment of combination effects, cells are seeded into 384-well plates at 500 cells/well and incubated overnight. The contents of the compound master plates are pre-diluted with 1:200 (1 μL compound solution to 200 μL cell […] culture medium containing 10% fetal clf serum) before transferring 5 μL of this pre-dilution to the cell plates containing 20 μL cell culture medium, to achieve the targeted final compound concentrations as well as a vehicle (DMSO) concentration of 0.09%.
(§3) Effects of single agents as well as their checkerboard combinations on cell viability are assessed after 72 hours of incubation at 37° C./5% CO2 by quantification of cellular ATP levels (CellTiterGlo, Promega) using 25 μL reagent/well and n=2 repliate plates per condition. The number/viability of cells at the time of compound addition was likewise assessed and used to estimate the population doubling time of the particular cell line. Single agent IC50s are calculated using standard four-parametric curve fitting (SLFit, model 205). Potential synergistic interactions between compound combinations are assessed using the Excess Inhibition 2D matrix according to the Loewe additivity model and are reported as Synergy Score. In addition, compound combinations are assessed by combination index analysis derived from isobologram graphs at 50% inhibition, and are reported as best combination index (CI), which corresponds to the lowest value on the isobologram. All synergy calculations are performed using CHALICE software (Lehár et al, Nat Biotechnol. (July 2009), 27(4): 69:66). Interpretation of values for combination index and synergy score are provided below:
Pairwise multiple comparisons of the result groups are performed by one-way ANOVA (Neuman-Keuls method) using GraphPad Prism 5 (GraphPad Software Inc.). Results

[2] = tested on: CRC and NSCLC cell lines that carry KRAS mutations; experiment: Cell proliferation assay (CellTiter-Glo, 72 hrs), dose matrix, Example 2, all six cell lines; conditions: in the combination dose matrix
Procedure: The cell lines used in this study were purchased from American Type Cell Collection, including non-small cell lung cancer cell lines NCI—H23 & NCI—H2122 (which carry both KRAS and LKB1 mutations), NCI—H358 (which carries KRAS mutation), NCI—H460 (which carries KRAS, LKB1 and PIK3CA mutations), and Colorectal Cancer cell line SW480 (which carries KRAS mutation), HCT-15 (which carries KRAS PIK3CA mutations). All the cell lines were cultured at 37° C. in a 5% CO2 incubator in RPMI 1640 (ATCC #30-2001) media complemented with 10% fetal bovine serum, 2 mmol/L glutamine and 1% sodium pyruvate.
Cell viability was determined by measuring cellular ATP content using the CellTiter-Glo® Luminescent Cell Viability Assay (Promega #G7573) according to manufacturer's protocol. Briefly, 500-900 cells/well were plated on clear-bottom 384-well black plates (Greiner#781091) in quadruplicates or duplicates with 30 ul/well growth media, cells were allowed to attach overnight and followed by 72 hrs of incubation with various concentration of drugs or drug combinations (10 ul/well), at the end of the drug treatment, 30 ul/well of the CellTiter-Glo regent were added to each well to lyse the cells, and luminescence signals were recorded on a Envision plate reader. […]

[3] = tested on: LS 180; experiment: Cell viability (CellTiterGlo, 72 h), Example 1; conditions: Homo sapiens, LS180, single agent
Source text: as §1, §2
as §3, with “[…]).” for “69:66). Interpretation of values for combination index and synergy score are provided below:”

[4] = tested on: SW480; experiment: Cell viability (CellTiterGlo, 72 h), Example 1; conditions: Homo sapiens, single agent
Source text: as §1, §2
as §3, with “[…]).” for “69:66). Interpretation of values for combination index and synergy score are provided below:”

[5] = tested on: HT-29; experiment: Cell viability (CellTiterGlo, 72 h), Example 1; conditions: Homo sapiens, HT-29, 72 h
Source text: as §1, §2
as §3, with “[…]).” for “69:66). Interpretation of values for combination index and synergy score are provided below:”

[6] = tested on: SW620; experiment: Cell viability (CellTiterGlo, 72 h), Example 1; conditions: Homo sapiens, SW-620, single agent
Source text: as §1, §2
as §3, with “[…]).” for “69:66). Interpretation of values for combination index and synergy score are provided below:”

[7] = tested on: NCI-H747; experiment: Cell viability (CellTiterGlo, 72 h), Example 1; conditions: Homo sapiens, single agent
Source text: as §1, §2
as §3, with “[…]).” for “69:66). Interpretation of values for combination index and synergy score are provided below:”

[8] = tested on: KM12; experiment: Cell viability (CellTiterGlo, 72 h), Example 1; conditions: Homo sapiens, single agent
Source text: as §1, §2
as §3, with “[…]).” for “69:66). Interpretation of values for combination index and synergy score are provided below:”

[9] = tested on: CW-2; experiment: Cell viability (CellTiterGlo, 72 h), Example 1; conditions: Homo sapiens, single agent
Source text: as §1, §2
as §3, with “[…]).” for “69:66). Interpretation of values for combination index and synergy score are provided below:”

- IC50 ([1]; Mean over colorectal cell lines, read-out: Mean Cmpd. A IC50): 7.51 µM
- IC50 ([1]; Median over colorectal cell lines, read-out: Median Cmpd. A IC50): 8.66 µM
- IC50 ([4]; read-out: Cmpd. A IC50): 9.35 µM
- IC50 ([5]; HT-29*, repeat experiment performed at end of study, single agent, read-out: Cmpd. A IC50): 4280 nM
- IC50 ([5]; HT-29, single agent, read-out: Cmpd. A IC50): 5200 nM
- IC50 ([6]; read-out: Cmpd. A IC50): > 10800 nM
- IC50 ([7]; read-out: Cmpd. A IC50): 6.21 µM
Structure (SMILES): Cc1nc(NC(=O)N2CCC[C@H]2C(N)=O)sc1-c1ccnc(C(C)(C)C(F)(F)F)c1 [COMPOUND A, (S)-pyrrolidine-1,2-dicarboxylic acid 2-amide 1-({4-methyl-5-[2-(2,2,2-trifluoro-1,1-dimethyl-ethyl)-pyridin-4-yl]-thiazol-2-yl}-amide)]
- doses at which synergistic regions are typically observed [2]: above 150 nM
- IC50 ([3]; read-out: Cmpd. A IC50): 5080 nM
- IC50 ([8]; read-out: Cmpd. A IC50): > 10800 nM
- IC50 ([9]; read-out: Cmpd. A IC50): > 10.8 µM

- IC50 ([1]; Mean over colorectal cell lines, read-out: Mean Cmpd. B IC50): 1.16 µM
- IC50 ([1]; Median over colorectal cell lines, read-out: Median Cmpd. B IC50): 0.076 µM
- IC50 ([4]; read-out: Cmpd. B IC50): 2.03 µM
- IC50 ([5]; HT-29*, repeat experiment performed at end of study, single agent, read-out: Cmpd. B IC50): 66.5 nM
- IC50 ([5]; HT-29, single agent, read-out: Cmpd. B IC50): 84 nM
- IC50 ([6]; read-out: Cmpd. B IC50): 26.9 nM
- IC50 ([7]; read-out: Cmpd. B IC50): 0.153 µM
Structure (SMILES): Cn1cnc2c(F)c(Nc3ccc(Br)cc3F)c(C(=O)NOCCO)cc21 [COMPOUND B, 6-(4-bromo-2-fluorophenylamino)-7-fluoro-3-methyl-3H-benzoimidazole-5-carboxylic acid (2-hydroxyethoxy)-amide]
- doses at which synergistic regions are typically observed [2]: ≥ 80 nM
- IC50 ([3]; read-out: Cmpd. B IC50): 143 nM
- IC50 ([8]; read-out: Cmpd. B IC50): 339 nM
- IC50 ([9]; read-out: Cmpd. B IC50): > 2.7 µM

— patent US9675595B2, “Synergistic combinations of PI3K- and MEK-inhibitors” (Novartis AG, priority 2011, dated 2017)
